Experimental data from patent US6841561B1, “Dihydroorotate dehydrogenase inhibitors for the treatment of viral-mediated diseases” (priority 1999, dated 2005).
“And” between values parts separate entries of the source, which are not always exact repeats. Identical values can stand only once. Like-named read-outs stand apart in the source and are kept apart here.

Legend:
kunjin virus [1] = assay: microbe, parasite or virus in culture; type: cell-based; conditions: West Nile virus
dengue virus [2] = assay: microbe, parasite or virus in culture; type: cell-based; conditions: Vero
yellow fever virus [3] = type: cell-based
kunjin virus [4] = type: cell-based
yellow fever virus [5] = assay: microbe, parasite or virus in culture
[6] = test system: vesicular stomatitis virus; assay: microbe, parasite or virus in culture
[7] = test system: respiratory syncytial virus; assay: microbe, parasite or virus in culture; type: cell-based; conditions: human respiratory syncytial virus, Vero, read-out: ED50 RSV VERO
dengue virus [8] = type: cell-based
VSV = type: cell-based, vesicular stomatitis virus
yellow fever virus [9] = assay: in vitro
[10] = test system: vesicular stomatitis virus; assay: in vitro; conditions: human
hepatitis C = conditions: patients with chronic hepatitis C; in combination with interferon; cited from earlier work

Row | Structure (SMILES) | EC50 (kunjin virus [1]; Huh-7, read-out: ED50) | EC50 (kunjin virus [1]; Vero, read-out: ED50) | EC50 (dengue virus [2]; read-out: ED50) | EC50 (yellow fever virus [5]; Huh-7, read-out: ED50) | EC50 (yellow fever virus [5]; Vero, read-out: ED50) | EC50 ([6]; Huh-7, read-out: ED50) | EC50 (kunjin virus [1]; Huh-7, read-out: ED50 KUN HuH7) | EC50 (dengue virus [2]; read-out: ED50 DEN VERO) | EC50 (yellow fever virus [5]; Huh-7, read-out: ED50 YFV HuH7) | EC50 (yellow fever virus [5]; Vero, read-out: ED50 YFV VERO) | other results
1 | Cc1nc2c(n1-c1ccc(Br)cc1)C(=O)c1ccccc1C2=O [BNID, 1-(p-bromophenyl)-2-methyl-1H-naphth[2,3-d]imidazole-4,9-dione] | 1.15 µM | 1.05 µM | 1.25 µM | 1.15 µM | 1.25 µM | 0.64 µM |  |  |  |  | Fold enhancement (yellow fever virus [3]): 10 fold and 5 fold; Fold enhancement (kunjin virus [4]): 6 fold
2 | Cc1c(-c2ccc(-c3ccccc3F)cc2)nc2ccc(F)cc2c1C(=O)[O-].[Na+] [Brequinar, 6-fluoro-2-(2′-fluoro-1,1′-biphenyl-4-yl)-3-methyl-4′-quinolinecarboxylic acid sodium salt] | 0.03 µM | 0.02 µM | 0.02 µM | 0.05 µM | 0.02 µM | 0.014 µM | 0.04 µM | 0.04 µM | 0.03 µM | 0.02 µM | EC50 [7]: 0.02 µM; Fold enhancement (dengue virus [8]): 10 fold; Fold enhancement (kunjin virus [4]): 4.5 fold; Fold enhancement (VSV): 266 fold; selectivity ratio (yellow fever virus [9]; human): 60; selectivity ratio (yellow fever virus [9]; monkey): 2670; selectivity ratio [10]: 2100; EC50 ([6]; Huh-7, read-out: ED50 VSV HuH7): 0.08 µM
3 | O=C1C(O)=C(CC=C(Cl)Cl)C(=O)c2ccccc21 [Dichloroallyl lawsone, dichloroallyl lawsone] | 0.78 µM |  |  | 1.1 µM | 0.9 µM | 0.49 µM |  |  |  |  | 
4 | O=C(O)c1cc(-c2ccc(-c3ccccc3)cc2)nc2ccc(OC(F)(F)F)cc12 [I2K5, 2-(4-biphenylyl)-6-trifluoromethoxy-quinoline-4-carboxylic acid] |  |  |  |  |  |  | 2 µM | 0.8 µM | 1.7 µM | 0.8 µM | Fold enhancement (yellow fever virus [3]): 3 fold
5 | O=C(O)c1cc(-c2ccc(C3CCCCC3)cc2)nc2ccc(OC(F)(F)F)cc12 [I2K46, 2-(4-cyclohexylphenyl)-6-trifluoromethoxy-quinoline-4-carboxylic acid] |  |  |  |  |  |  | 6.3 µM |  | 5.1 µM |  | 
6 | COc1c(-c2cc(C(=O)O)c3cc(OC(F)(F)F)ccc3n2)ccc(OCc2ccccc2)c1C [I2K51, 2-(4-benzyloxy-2-methoxy-3-methyl-phenyl)-6-trifluoromethoxy-quinoline-4-carboxylic acid] |  |  |  |  |  |  |  | 2.6 µM |  | 1.3 µM | 
7 | O=C(O)c1cc(-c2ccc(Oc3ccccc3)cc2)nc2ccc(OC(F)(F)F)cc12 [I2K52, 2-(4-phenoxyphenyl)-6-trifluoromethoxy-quinoline-4-carboxylic acid] |  |  |  |  |  |  | 9.6 µM |  | 11.3 µM |  | 
8 | Cc1c(-c2ccc(-c3ccccc3)cc2)nc2ccc(OC(F)(F)F)cc2c1C(=O)O [I2K55, 2-(4-biphenylyl)-3-methyl-6-trifluoromethoxy-quinoline-4-carboxylic acid] |  |  |  |  |  |  | 5.8 µM | 11.8 µM | 6.1 µM | 11.8 µM | 
9 | COc1cc(-c2ccc(Nc3ccccc3C(=O)O)c(OC)c2)ccc1Nc1ccccc1C(=O)O [Redoxal] | 0.52 µM | 0.39 µM | 0.39 µM | 0.63 µM | 0.25 µM | 0.63 µM |  |  |  |  | 
10 | NC(=O)c1ncn([C@@H]2O[C@H](CO)[C@@H](O)[C@H]2O)n1 [Ribavirin] | 60 µM | 309 µM | 320 µM | 34 µM | 205 µM | 250 µM |  |  |  |  | combined treatment efficacy (hepatitis C): up to 40%; selectivity ratio (yellow fever virus [9]; human): 70; selectivity ratio (yellow fever virus [9]; monkey): 36; EC50 ([6]; MRC5, read-out: ED50): 120 µM
